Data from patent publication US20230203025A1, “ENHANCERS OF PARTICULATE GUANYLYL CYCLASE RECEPTOR A” (Mayo Foundation for Medical Education and Research, priority 2020, published 2023).
“And” between values parts separate entries of the source, which are not always exact repeats. Equal entries are not always repeated.

Experiments:
pGC-A = target: T1, pGC-A (Homo sapiens, UniProt P16066); experiment: cGMP production by HTRF in HEK293 cells overexpressing pGC-A; assay type: cell-based; settings: for Emax: HEK293, cGMP normalized to maximal amount produced by an EC80 concentration of ANP, read-out: Max efficacy; for EC50: HEK293 pGC-A cells, cGMP HTRF, in the presence of EC20 concentration of ANP
T1 construct: expressed in transfected cells; host or cells: HEK293
T1 sequence (P16066 33-1061): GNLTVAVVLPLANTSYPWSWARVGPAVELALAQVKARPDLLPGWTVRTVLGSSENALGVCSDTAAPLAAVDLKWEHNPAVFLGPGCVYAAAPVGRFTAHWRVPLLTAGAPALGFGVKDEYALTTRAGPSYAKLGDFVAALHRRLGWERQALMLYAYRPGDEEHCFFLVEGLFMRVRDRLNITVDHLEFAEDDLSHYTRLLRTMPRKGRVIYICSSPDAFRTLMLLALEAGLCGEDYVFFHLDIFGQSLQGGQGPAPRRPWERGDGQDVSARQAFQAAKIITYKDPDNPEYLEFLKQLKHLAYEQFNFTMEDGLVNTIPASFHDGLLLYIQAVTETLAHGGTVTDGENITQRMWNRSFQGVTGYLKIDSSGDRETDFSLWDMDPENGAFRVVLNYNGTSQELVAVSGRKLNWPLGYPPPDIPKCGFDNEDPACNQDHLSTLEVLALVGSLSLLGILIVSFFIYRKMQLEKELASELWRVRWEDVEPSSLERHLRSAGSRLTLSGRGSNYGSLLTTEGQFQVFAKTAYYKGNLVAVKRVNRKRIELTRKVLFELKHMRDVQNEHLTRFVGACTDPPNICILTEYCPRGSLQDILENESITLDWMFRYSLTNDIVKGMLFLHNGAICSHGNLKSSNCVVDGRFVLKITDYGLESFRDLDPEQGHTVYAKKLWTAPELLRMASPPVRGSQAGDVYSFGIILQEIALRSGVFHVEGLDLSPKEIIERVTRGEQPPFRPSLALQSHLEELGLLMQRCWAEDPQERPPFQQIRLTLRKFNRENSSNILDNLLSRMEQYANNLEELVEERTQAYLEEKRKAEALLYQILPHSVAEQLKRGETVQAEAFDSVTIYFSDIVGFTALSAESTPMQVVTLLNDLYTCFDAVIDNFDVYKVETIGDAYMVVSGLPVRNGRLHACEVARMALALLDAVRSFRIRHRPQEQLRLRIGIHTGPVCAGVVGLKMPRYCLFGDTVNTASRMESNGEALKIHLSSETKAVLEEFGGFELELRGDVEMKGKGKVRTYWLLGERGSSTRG
T1 sequence (P01160 124-151 partner limits assumed): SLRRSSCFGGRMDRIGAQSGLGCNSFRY
Method: Assay details: 20 nL of 10 μM test compound in DMSO was added to columns 5-48 of 1536 well white high base screening plates (Corning, New York, N.Y.) cells using 550 ECHO acoustic dispenser (Labcyte, San Jose, Calif.). […] HEK293 cells overexpressing GC-A were resuspended in assay media (OptimMem media containing 2% Heat-inactivated Fetal bovine serum and L-glutamine) at a density of 6×10^5 cells/mL and 2 μL were plated in screening plates (1200 cells/well) in suspension using a Bioraptr 2. Plates were spun at 1000 rpm for 1 min and incubated for 30 min at room temperature. 1.5 μL d2-labled cGMP followed by 1.5 uL Eu^3+ cryptate-labeled anti-cGMP cGMP detection kit (CiBio; #62GM2PEC) prepared according to manufacturer's protocol were added to all wells using a Bioraptr 2 and TR-FRET signal was detected on an EnVision detector (PerkinElmer).

[1] = system: primary human cardiomyocytes (HCMs); experiment: inhibition of TGF-beta 1 induced human cardiomyocyte hypertrophy; assay type: cell-based; settings: TGF-β1 5 ng/mL
Method: Methods (Inhibition of Human Cardiac Hypertrophy In Vitro): primary human cardiomyocytes (HCMs) were grown in growth media to 50% confluence and then were subjected to serum starvation for 24 hrs. After that, 5 ng/mL of the cytokine TGFβ-1 (R&D Systems) was added to the media for 48 hrs to induce HCM hypertrophy. […] Normal cell buffer served as a vehicle only control, where TGFP-1 alone served as the positive control. Analysis for cell surface area (μm^2) was performed using the ImageJ software at the end of the study.
Results: to further support the cGMP generation in human primary cells leads to favorable biological GC-A mediated, the anti-hypertrophic effects were assessed of Compound 19 on live HCMs stressed with TGF-β1 (5 ng/mL), using a state-of-the-art live cell imaging platform (IncuCyte System).

in vitro solubility = assay type: physicochemical; settings: FIG. 3
[2] = rodent microsomal stability; assay type: in vitro ADME; settings: FIG. 3

Row | Emax (pGC-A) | EC50 (pGC-A) | SMILES | also measured
1 | 79% | 1720 nM | O=C(Nc1nc2c(F)cc(F)cc2s1)C1CCN(C(=O)C2CCC2)CC1 [Compound 2] | –
2 | 82% | 6250 nM | O=C(Nc1nc2c(F)cc(F)cc2s1)C1CCN(C(=O)C2CC2)C1 (centres unmarked) [Compound 22] | –
3 | 51% | 2000 nM | CC(C)(C)C(=O)N1CCC(C(=O)Nc2nc3c(Cl)cccc3s2)CC1 [Compound 6] | –
4 | 64% | 3360 nM | O=C(Nc1nc2c(F)cc(F)cc2s1)C1CCCN(C(=O)c2ccccc2)C1 (centres unmarked) [Compound 12] | –
5 | – | – | CC[C@H](C)[C@@H]1NC(=O)[C@H](CCCNC(=N)N)NC(=O)[C@H](CC(=O)O)NC(=O)[C@H](CCSC)NC(=O)[C@H](CCCNC(=N)N)NC(=O)CNC(=O)CNC(=O)[C@H](Cc2ccccc2)NC(=O)[C@@H](NC(=O)[C@H](CO)NC(=O)[C@H](CO)NC(=O)[C@H](CCCNC(=N)N)NC(=O)[C@H](CCCNC(=N)N)NC(=O)[C@H](CC(C)C)NC(=O)[C@@H](N)CO)CSSC[C@@H](C(=O)N[C@@H](CC(N)=O)C(=O)N[C@@H](CO)C(=O)N[C@@H](Cc2ccccc2)C(=O)N[C@@H](CCCNC(=N)N)C(=O)N[C@@H](Cc2ccc(O)cc2)C(=O)O)NC(=O)CNC(=O)[C@H](CC(C)C)NC(=O)CNC(=O)[C@H](CO)NC(=O)[C@H](CCC(N)=O)NC(=O)[C@H](C)NC(=O)CNC1=O [ANP, reference compound] | inhibition of HCM hypertrophy ([1]; ANP 10^−8 M alone): significant inhibition; inhibition of HCM hypertrophy ([1]; ANP 10^−10 M alone): no effect
6 | 74% | 1150 nM | CC(=O)N1CCC(C(=O)Nc2nc3c(F)cc(F)cc3s2)CC1 [Compound 3] | –
7 | 80% | 840 nM | CC(C)N1CCC(C(=O)Nc2nc3c(F)cc(F)cc3s2)CC1 [Compound 4] | –
8 | 84% | 1790 nM | CN1CCC(C(=O)Nc2nc3c(F)cc(F)cc3s2)C1 (centres unmarked) [Compound 30] | –
9 | 84% | 560 nM | CC(=O)N1CCC(C(=O)Nc2nc3c(F)cc(F)cc3s2)C1 (centres unmarked) [Compound 24] | –
10 | 66% | 2690 nM | O=C(Nc1nc2c(F)cc(F)cc2s1)C1CCN(C(=O)Cc2ccccc2)C1 (centres unmarked) [Compound 27] | –
11 | 74% | 3570 nM | CC(C)(C)CC(=O)N1CCCC(C(=O)Nc2nc3c(F)cc(F)cc3s2)C1 (centres unmarked) [Compound 13] | –
12 | 64% | 8260 nM | CC(C)(C)OC(=O)N1CCCC(C(=O)Nc2nc3c(F)cc(F)cc3s2)C1 (centres unmarked) [Compound 7] | –
13 | 81% | 1230 nM | CN1CCCC(C(=O)Nc2nc3c(F)cc(F)cc3s2)C1 (centres unmarked) [Compound 17] | –
14 | 81% | 3230 nM | CC(C)(C)CC(=O)N1CCC(C(=O)Nc2nc3c(F)cc(F)cc3s2)C1 (centres unmarked) [Compound 26] | –
15 | 84% | 6860 nM | O=C(Nc1nc2c(F)cc(F)cc2s1)C1CCN(C(=O)c2ccccc2)C1 (centres unmarked) [Compound 25] | –
16 | 82% | 1970 nM | O=C(Nc1nc2c(F)cc(F)cc2s1)C1CCCN(C(=O)C2CC2)C1 (centres unmarked) [Compound 9] | –

Row | Emax (pGC-A) | EC50 (pGC-A) | SMILES | also measured
17 | 82% | 1050 nM | O=C(Nc1nc2c(F)cc(F)cc2s1)C1CCCNC1 (centres unmarked) [Compound 18] | –
18 | 66% | 990 nM | CS(=O)(=O)N1CCC(C(=O)Nc2nc3c(F)cc(F)cc3s2)C1 (centres unmarked) [Compound 28] | –
19 | 79% | 1650 nM | CC(=O)N1CCCC(C(=O)Nc2nc3c(F)cc(F)cc3s2)C1 (centres unmarked) [Compound 11] | –
20 | 74% | 4380 nM | CC(C)(C)OC(=O)N1CCC(C(=O)Nc2nc3c(F)cc(F)cc3s2)C1 (centres unmarked) [Compound 20] | –
21 | 77% | 1810 nM | O=C(Nc1nc2c(F)cc(F)cc2s1)C1CCCN(C(=O)C2CCC2)C1 (centres unmarked) [Compound 10] | –
22 | 84% | 2090 nM | CC(C)(C)C(=O)N1CCC(C(=O)Nc2nc3c(F)cc(F)cc3s2)C1 (centres unmarked) [Compound 21] | –
23 | 77% | 1750 nM | CS(=O)(=O)N1CCCC(C(=O)Nc2nc3c(F)cc(F)cc3s2)C1 (centres unmarked) [Compound 15] | –
24 | 66% | 2410 nM | O=C(Nc1nc2c(F)cc(F)cc2s1)C1CCCN(Cc2ccccc2)C1 (centres unmarked) [Compound 16] | –
25 | 81% | 1630 nM | CN(C)CCN1CCC(C(=O)Nc2nc3c(F)cc(F)cc3s2)C1 (centres unmarked) [Compound 32] | –
26 | 71% | 2020 nM | O=C(Nc1nc2c(F)cc(F)cc2s1)C1CCCN(C(=O)Cc2ccccc2)C1 (centres unmarked) [Compound 14] | –
27 | – | > 66000 nM | CC(C)(C)C(=O)N1CCC(C(=O)Nc2nc3c(Cl)ccc(Cl)c3s2)CC1 [Compound 5] | –
28 | 83% | 2180 nM and 1380 nM and 1570 nM | CC(C)(C)C(=O)N1CCC(C(=O)Nc2nc3c(F)cc(F)cc3s2)CC1 [Compound 1] | solubility compared to compound A (in vitro solubility): improved; rodent microsomal stability compared to compound A [2]: improved; potency compared to compound A (pGC-A; HEK pGC-A cGMP, FIG. 2-3): improved potency; Max efficacy (pGC-A; cGMP normalized to maximal amount produced by an EC80 concentration of ANP): 76% and 77%
29 | 73% | 5070 nM | CC(C)(C)C(=O)N1CCCC(C(=O)Nc2nc3c(F)cc(F)cc3s2)C1 (centres unmarked) [Compound 8] | –
30 | 82% | 6060 nM | O=C(Nc1nc2c(F)cc(F)cc2s1)C1CCN(C(=O)C2CCC2)C1 (centres unmarked) [Compound 23] | –
31 | 84% | 1570 nM | O=C(Nc1nc2c(F)cc(F)cc2s1)C1CCNC1 (centres unmarked) [Compound 31] | –
